The values that follow come from US20110195929A1, “COMPOUNDS FOR THE TREATMENT OF FLAVIVIRAL INFECTIONS” (SUMMIT CORPORATION PLC, priority 2008, published 2011).

The test has as its system HCV. The test is described as follows: Cell-based HCV infection NS3 protease FRET assay in DMSO-Huh7 cells. Note: test concentration or dose not given here. Set-up: species or system hepatitis C virus (HCV).
Where [1] appears, read: DMSO-Huh7 cells infected with HCV at 0.05 ffu/cell, HCV NS3 protein levels by FRET, day 6 p.i.

Like-named read-outs stand apart in the source and are kept apart here.

As to `O=C(NC[C@@H]1NC[C@H](O)[C@@H]1O)C(F)(F)F` [Compound 674, N-(((2S,3R,4S)-3,4-dihydroxypyrrolidin-2-yl)methyl)-2,2,2-trifluoroacetamide], the Ave % inhibition result under setting [1] is “++ (++: 20-39%)”. For `C[C@@H]1CC[C@@H]2[C@@H](O)[C@H](O)[C@@H](CO)N12` [Compound 14, (1R,2R,3R,5R,7aR)-3-(hydroxymethyl)-5-methylhexahydro-1H-pyrrolizine-1,2-diol], the Ave % inhibition result is reported as “+ (+: ≦19%)”.

As for `[N-]=[N+]=N[C@@H]1C[C@H](CO)N(CCCO)C1` [Compound 717, ′3-((2R,4R)-4-azido-2-(hydroxymethyl)pyrrolidin-1-yl)propan-1-ol], the Ave % inhibition result under setting [1] was “+++++ (+++++: ≧80%)”. Still for that read-out and setting: the result for `O=C(NC[C@H]1[C@@H](O)[C@@H](O)CN1CCN1CCOCC1)c1ccccc1` [Compound 633, N-(((2S,3R,4S)-3,4-dihydroxy-1-(2-morpholinoethyl)pyrrolidin-2-yl)methyl)benzamide] reads “+++ (+++: 40-59%)”. On the same count and under the same terms, the result for `OC[C@H]1N[C@H](CO)[C@@H](O)[C@H](O)[C@H]1O` [Compound 15, (2R,3S,4R,5R,6R)-2,6-bis(hydroxymethyl)piperidine-3,4,5-triol] reads “++ (++: 20-39%)”. Same read-out and setting: the entry for `CCCC(=O)OC[C@@H]1[C@@H](OC(=O)CCC)[C@H](OC(=O)CCC)[C@H]2[C@H](OC(=O)CCC)[C@@H](OC(=O)CCC)CN21` [Compound 132, (1R,2R,3R,6S,7S,7aR)-3-(butyryloxymethyl)hexahydro-1H-pyrrolizine-1,2,6,7-tetrayl tetrabutyrate] is “++ (++: 20-39%)”; for `CCCCN1C[C@H](O)[C@H](O)[C@@H]1CO` [Compound 162, (2S,3R,4S)-1-butyl-2-(hydroxymethyl)pyrrolidine-3,4-diol] it is “++ (++: 20-39%)”. Take `CCCCCCCCCN1C[C@H](O)[C@H](O)[C@@H]1CNC(=O)c1ccccc1` [Compound 622, N-(((2S,3R,4S)-3,4-dihydroxy-1-nonylpyrrolidin-2-yl)methyl)benzamide]: under setting [1], the Ave % inhibition result was “+++++ (+++++: ≧80%)”. As to `CCCCCCCCCN1C[C@@H](O)[C@H](NC(C)=O)[C@@H](O)C1` [Compound 789, N-((3S,4r,5R)-3,5-dihydroxy-1-nonylpiperidin-4-yl)acetamide], the Ave % inhibition entry under setting [1] is “+++ (+++: 40-59%)”.

Take `C[C@@]1(C(=O)O)NC[C@H](O)[C@H]1O` [Compound 504, (2R,3S,4S)-3,4-dihydroxy-2-methylpyrrolidine-2-carboxylic acid]: the Ave % inhibition result under setting [1] was “++ (++: 20-39%)”.

Take `OC[C@H]1[C@H](O)[C@H](O)CN1Cc1ccc(-c2ccccc2)cc1` [Compound 623, (2S,3S,4R)-1-(biphenyl-4-ylmethyl)-2-(hydroxymethyl)pyrrolidine-3,4-diol]: the Ave % inhibition entry under setting [1] is reported as “++ (++: 20-39%)”. Still for that read-out and setting: the result for `CCCCCCCCCN1C[C@H](O)[C@H](O)[C@H]1CNC(C)=O` [Compound 512, N-(((2R,3R,4S)-3,4-dihydroxy-1-nonylpyrrolidin-2-yl)methyl)acetamide] reads “+++ (+++: 40-59%)”; that for “(1S,2S,3S,6R,7R,7aR)-1,6,7-trihydroxy-3-(hydroxymethyl)hexahydro-1H-pyrrolizin-2-yl methanesulfonate [Compound 635]”, “++ (++: 20-39%)”; that for `OCCCCCCCCCN1[C@H](CO)[C@@H](O)[C@H](O)[C@H]1CO` [Compound 557, (2R,3R,4R,5R)-2,5-bis(hydroxymethyl)-1-(9-hydroxynonyl)pyrrolidine-3,4-diol], “++ (++: 20-39%)”. Consider `CC1(C)O[C@H]2[C@@H](CN=[N+]=[N-])NC[C@H]2O1` [Compound 671, (3aS,4R,6aR)-4-(azidomethyl)-2,2-dimethyltetrahydro-3aH-[1,3]dioxolo[4,5-c]pyrrole], for which the Ave % inhibition result is recorded as “++ (++: 20-39%)”. For the molecule `CCCCCCCCCN1C[C@@H](O)[C@H](O)[C@H](O)[C@@H](O)C1` [Compound 736, (3R,4S,5R,6S)-1-nonylazepane-3,4,5,6-tetraol], the Ave % inhibition result under setting [1] is “+++ (+++: 40-59%)”. The same measure, in the same setting: the entry for `CC1(C)O[C@H]2[C@H](CN(CCN3CCOCC3)[C@H]2CNC(=O)C(F)(F)F)O1` [Compound 675, N-(((3aR,4S,6aS)-2,2-dimethyl-5-(2-morpholinoethyl)tetrahydro-3aH-[1,3]dioxolo[4,5-c]pyrrol-4-yl)methyl)-2,2,2-trifluoroacetamid] is “++ (++: 20-39%)”; for `CCCCN1C[C@@H](N=[N+]=[N-])C[C@H]1CO` [Compound 275, ((2S,4S)-4-azido-1-butylpyrrolidin-2-yl)methanol] it is “++ (++: 20-39%)”. The same measure, in the same setting: the result for `CCCCCCCCCN1C[C@H](O)[C@@H](O)[C@H](NC(C)=O)C1` [Compound 774, N-((3R,4S,5S)-4,5-dihydroxy-1-nonylpiperidin-3-yl)acetamide] reads “+ (+: ≦19%)”. Regarding `CCCCCCCCCN1C[C@H](O)[C@@H](O)[C@H](O)[C@H]1CO` [Compound 550, (2R,3R,4R,5S)-2-(hydroxymethyl)-1-nonylpiperidine-3,4,5-triol], the Ave % inhibition entry is on record as “++ (++: 20-39%)”.
